Results published in patent US8129371B2, “Thienopyrimidine and pyrazolopyrimidine compounds and their use as mTOR kinase and PI3 kinase inhibitors” (Wyeth LLC, priority 2007, dated 2012).
Where two headings read alike, the source gives them in different places.

Assays:
[1] = molecular target: T1, Human mTOR (FLAG-TOR) (Homo sapiens, UniProt P42345); assay: Human mTOR kinase assay with purified enzyme, DELFIA format; type: biochemical
T1 construct: FLAG
Procedure, shortened: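 DELFIA readout: Eu-anti-P(T389)-S6K antibody (40 ng/mL, 1 h) on captured His6-S6K from the stopped reaction. Kinase step used purified FLAG-tagged human mTOR with test compound in HEPES (pH 7.4)/MnCl2/DTT buffer, 2 h at room temperature (linear 1–6 h), terminated by EDTA/EGTA.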

[2] = tested on: breast line MDA468; assay: In vitro cell culture growth assay (MTS), MDA468; type: cell-based; conditions: Homo sapiens, 72 h, MDA468 cells, three days after drug treatment
Procedure, shortened: (§1)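 Cells were plated and, one day later, treated with inhibitors. Three days after treatment, viable cell density was measured by MTS dye conversion, read as absorbance at 490 nm. Effects are expressed as percent of control growth versus vehicle-treated cells on the same plate.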

[3] = tested on: prostate line LNCap; assay: In vitro cell culture growth assay (MTS), LNCap; type: cell-based; conditions: Homo sapiens, LNCaP, 72 h, LNCap cells, three days after drug treatment
Procedure, shortened: as §1

[4] = molecular target: T2, PI3K (Homo sapiens, UniProt P42336); assay: Fluorescence polarization assay for PI3K; type: biochemical; conditions: read-out: PI3 Kinase α IC50
T2 construct: PI3 Kinase α IC50; other: PI3 Kinase α; other: PI3 Kinase α isoform, fluorescence polarization
Procedure, shortened: (§2)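 Fluorescence-polarization competition readout: after 30–60 min of PIP2/ATP turnover in 1% DMSO, a stop mix with GST-GRP (70 nM) and red probe (10 nM) was added.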

[5] = molecular target: T3, PI3K (Homo sapiens, UniProt P48736); assay: Fluorescence polarization assay for PI3K; type: biochemical; conditions: read-out: PI3 Kinase γ IC50
T3 construct: PI3 Kinase γ IC50; other: PI3 Kinase γ; other: PI3 Kinase γ isoform, fluorescence polarization
Procedure, shortened: as §2

[6] = purified human mTOR enzyme, DELFIA format
[7] = PI3 Kinase α isoform, fluorescence polarization
[8] = PI3 Kinase γ isoform, fluorescence polarization

T2 sequence (P42336 whole entry, canonical isoform): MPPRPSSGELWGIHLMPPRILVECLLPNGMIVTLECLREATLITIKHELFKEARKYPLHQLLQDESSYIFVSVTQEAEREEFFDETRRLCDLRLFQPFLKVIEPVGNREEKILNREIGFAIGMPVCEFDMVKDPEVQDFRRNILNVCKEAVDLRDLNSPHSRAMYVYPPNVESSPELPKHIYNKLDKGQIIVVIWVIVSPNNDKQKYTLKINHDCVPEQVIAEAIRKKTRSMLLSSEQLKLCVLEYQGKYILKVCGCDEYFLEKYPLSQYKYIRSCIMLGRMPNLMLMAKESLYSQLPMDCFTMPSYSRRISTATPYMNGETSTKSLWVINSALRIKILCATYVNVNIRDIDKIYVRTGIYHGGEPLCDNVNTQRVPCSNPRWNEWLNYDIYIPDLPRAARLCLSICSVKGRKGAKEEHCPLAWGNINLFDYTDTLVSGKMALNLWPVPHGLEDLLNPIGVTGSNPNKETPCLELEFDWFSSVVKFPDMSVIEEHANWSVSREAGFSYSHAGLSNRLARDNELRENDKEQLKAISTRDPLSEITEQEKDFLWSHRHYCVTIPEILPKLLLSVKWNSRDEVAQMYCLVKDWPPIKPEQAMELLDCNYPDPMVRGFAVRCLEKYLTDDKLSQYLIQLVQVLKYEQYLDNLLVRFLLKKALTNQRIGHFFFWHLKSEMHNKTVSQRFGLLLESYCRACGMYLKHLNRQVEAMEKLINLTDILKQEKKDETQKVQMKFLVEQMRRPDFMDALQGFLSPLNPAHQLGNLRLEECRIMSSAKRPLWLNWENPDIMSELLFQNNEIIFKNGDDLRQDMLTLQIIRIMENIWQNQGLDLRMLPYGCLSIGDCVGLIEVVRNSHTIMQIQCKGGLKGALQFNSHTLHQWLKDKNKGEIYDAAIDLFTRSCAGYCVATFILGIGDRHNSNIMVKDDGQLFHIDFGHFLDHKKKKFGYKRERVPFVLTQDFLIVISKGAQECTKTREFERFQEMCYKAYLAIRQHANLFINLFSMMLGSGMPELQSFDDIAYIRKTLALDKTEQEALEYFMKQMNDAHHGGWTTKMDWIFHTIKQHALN
T3 sequence (P48736 whole entry, canonical isoform): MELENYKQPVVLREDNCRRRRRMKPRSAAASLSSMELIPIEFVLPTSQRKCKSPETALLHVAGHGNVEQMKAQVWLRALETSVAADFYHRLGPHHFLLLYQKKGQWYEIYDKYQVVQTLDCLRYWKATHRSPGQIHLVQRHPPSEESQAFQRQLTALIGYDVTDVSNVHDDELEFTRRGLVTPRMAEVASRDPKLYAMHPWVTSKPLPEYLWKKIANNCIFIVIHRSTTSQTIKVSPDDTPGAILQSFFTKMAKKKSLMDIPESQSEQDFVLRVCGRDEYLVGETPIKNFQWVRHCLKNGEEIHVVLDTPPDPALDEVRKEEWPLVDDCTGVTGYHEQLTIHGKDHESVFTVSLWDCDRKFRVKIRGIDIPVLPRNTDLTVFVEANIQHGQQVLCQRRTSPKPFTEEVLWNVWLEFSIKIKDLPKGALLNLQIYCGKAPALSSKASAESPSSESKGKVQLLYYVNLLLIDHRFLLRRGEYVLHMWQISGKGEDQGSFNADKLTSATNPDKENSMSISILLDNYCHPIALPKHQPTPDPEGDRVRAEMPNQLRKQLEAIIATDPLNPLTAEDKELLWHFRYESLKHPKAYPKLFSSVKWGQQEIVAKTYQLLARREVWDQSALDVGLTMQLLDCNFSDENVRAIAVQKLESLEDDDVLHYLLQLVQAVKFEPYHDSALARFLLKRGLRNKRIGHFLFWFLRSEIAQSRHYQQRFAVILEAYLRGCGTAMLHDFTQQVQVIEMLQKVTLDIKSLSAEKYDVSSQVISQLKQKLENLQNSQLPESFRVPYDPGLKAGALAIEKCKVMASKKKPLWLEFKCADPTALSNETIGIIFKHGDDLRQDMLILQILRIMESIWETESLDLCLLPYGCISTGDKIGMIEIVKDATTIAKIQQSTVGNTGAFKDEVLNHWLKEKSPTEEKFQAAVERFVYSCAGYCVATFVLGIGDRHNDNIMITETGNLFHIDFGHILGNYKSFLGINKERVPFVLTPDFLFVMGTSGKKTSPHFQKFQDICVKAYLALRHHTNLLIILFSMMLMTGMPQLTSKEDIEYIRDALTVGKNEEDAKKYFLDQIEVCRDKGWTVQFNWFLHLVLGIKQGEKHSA

Compound | IC50 [1] [nM] | IC50 [3] [nM] | IC50 ([4]; PI3 Kinase α) [nM] | IC50 ([5]; PI3 Kinase γ) [nM] | IC50 [1, 6] [nM] | IC50 [4, 7] [nM] | IC50 [5, 8] [nM] | IC50 [2] [nM]
COC(=O)Nc1ccc(-c2nc(N3CC4CCC(C3)O4)c3cnn(C(C)C)c3n2)cc1 [Example 138, methyl {4-[1-isopropyl-4-(8-oxa-3-azabicyclo[3.2.1]oct-3-yl)-1H-pyrazolo[3,4-d]pyrimidin-6-yl]phenyl}carbamate] | 1.27 | 80 | 1040 | 3780 |  |  |  | 510
CC(C)C(=O)N1CCC(n2ncc3c(N4CC5CCC(C4)O5)nc(-c4ccc(NC(=O)NC5CC5)cc4)nc32)CC1 [Example 86, 1-cyclopropyl-3-{4-[1-(1-isobutyrylpiperidin-4-yl)-4-(8-oxa-3-azabicyclo[3.2.1]oct-3-yl)-1H-pyrazolo[3,4-d]pyrimidin-6-yl]phenyl}urea] | 0.66 | 80 | 4240 | > 10000 |  |  |  | 350
COCC(COC)n1ncc2c(N3CC4CCC(C3)O4)nc(-c3ccc(NC(=O)Nc4cccnc4)cc3)nc21 [Example 326, 1-(4-{1-[2-methoxy-1-(methoxymethyl)ethyl]-4-(8-oxa-3-azabicyclo[3.2.1]oct-3-yl)-1H-pyrazolo[3,4-d]pyrimidin-6-yl}phenyl)-3-pyridin-3-ylurea] |  | 30 |  |  | 2.65 | 1180 | 9530 | 150
c1cc2cc(-c3nc(N4CC5CCC(C4)O5)c4cnn(C5CCC6(CC5)OCCO6)c4n3)ccc2[nH]1 [Example 388, 1-(1,4-dioxaspiro[4.5]dec-8-yl)-6-(1H-indol-5-yl)-4-(8-oxa-3-azabicyclo[3.2.1]oct-3-yl)-1H-pyrazolo[3,4-d]pyrimidine] |  | 330 |  |  | 12.5 | 10500 | > 10000 | 2000
CCn1ncc2c(N3CC4CCC(C3)O4)nc(-c3ccc(NC(=O)N[C@H]4CC[C@H](N)CC4)cc3)nc21 (relative stereo) [Example 230, 1-(trans-4-aminocyclohexyl)-3-{4-[1-ethyl-4-(8-oxa-3-azabicyclo[3.2.1]oct-3-yl)-1H-pyrazolo[3,4-d]pyrimidin-6-yl]phenyl}urea] | 15.5 | 1300 | 2890 | > 10000 |  |  |  | 1500
COC(=O)N1CCC(n2ncc3c(N4CC5CCC(C4)O5)nc(-c4ccc(NC(=O)Nc5ccccc5CO)cc4)nc32)CC1 [Example 172, methyl 4-{6-[4-({[2-(hydroxymethyl)phenyl]carbamoyl}amino)phenyl]-4-(8-oxa-3-azabicyclo[3.2.1]oct-3-yl)-1H-pyrazolo[3,4-d]pyrimidin-1-yl}piperidine-1-carboxylate] | 3.05 | 200 | 1370 | 1730 |  |  |  | 1300
CNC(=O)Nc1ccc(-c2nc(N3C4CCC3COC4)c3cnn(CC(F)(F)F)c3n2)cc1 [Example 267, 1-methyl-3-{4-[4-(3-oxa-8-azabicyclo[3.2.1]oct-8-yl)-1-(2,2,2-trifluoroethyl)-1H-pyrazolo[3,4-d]pyrimidin-6-yl]phenyl}urea] | 0.565 | 9 | 1370 | 9000 |  |  |  | 40
CN(C)CCn1ncc2c(N3CC4CCC(C3)O4)nc(-c3ccc(NC(=O)Nc4cccnc4)cc3)nc21 [Example 157, 1-(4-{1-[2-(dimethylamino)ethyl]-4-(8-oxa-3-azabicyclo[3.2.1]oct-3-yl)-1H-pyrazolo[3,4-d]pyrimidin-6-yl}phenyl)-3-pyridin-3-ylurea] | 2.7 | 50 | 235 | 3120 |  |  |  | 220
CN(C)CCn1ncc2c(N3CC4CCC(C3)O4)nc(-c3ccc(NC(=O)NC4CC4)cc3)nc21 [Example 161, 1-cyclopropyl-3-(4-{1-[2-(dimethylamino)ethyl]-4-(8-oxa-3-azabicyclo[3.2.1]oct-3-yl)-1H-pyrazolo[3,4-d]pyrimidin-6-yl}phenyl)urea] | 8.4 | 210 | 3600 | > 10000 |  |  |  | 2200
CNC(=O)Nc1ccc(-c2nc(N3CC4CCC(C3)O4)c3cnn(C)c3n2)cc1 [Example 50, 1-methyl-3-{4-[1-methyl-4-(8-oxa-3-azabicyclo[3.2.1]oct-3-yl)-1H-pyrazolo[3,4-d]pyrimidin-6-yl]phenyl}urea] | 2 | 170 | 247 | 6290 |  |  |  | 700
O=C(Nc1ccc(-c2nc(N3CC4CCC(C3)O4)c3cnn(CCO)c3n2)cc1)Nc1cccnc1 [Example 199, 1-{4-[1-(2-hydroxyethyl)-4-(8-oxa-3-azabicyclo[3.2.1]oct-3-yl)-1H-pyrazolo[3,4-d]pyrimidin-6-yl]phenyl}-3-pyridin-3-ylurea] | 0.46 | 90 | 174 | 3990 |  |  |  | 110
COC(=O)N1CCC(n2ncc3c(N4C5CCC4COC5)nc(-c4ccc(NC(=O)Nc5ccc(OCCN(C)C)cc5)cc4)nc32)CC1 [Example 368, methyl 4-[6-{4-[({4-[2-(dimethylamino)ethoxy]phenyl}carbamoyl)amino]phenyl}-4-(3-oxa-8-azabicyclo[3.2.1]oct-8-yl)-1H-pyrazolo[3,4-d]pyrimidin-1-yl]piperidine-1-carboxylate] |  | 1 |  |  | 0.885 | 1160 | 2000 | 4

The next lines start with results.

IC50 [1] [nM] | IC50 [3] [nM] | IC50 ([4]; PI3 Kinase α) [nM] | IC50 ([5]; PI3 Kinase γ) [nM] | IC50 [1, 6] [nM] | IC50 [4, 7] [nM] | IC50 [5, 8] [nM] | Compound | IC50 [2] [nM]
0.215 | 5 | 54 | 1830 |  |  |  | COC(=O)N1CCC(n2ncc3c(N4CC5CCC(C4)O5)nc(-c4ccc(NC(=O)Nc5cccc(CO)c5)cc4)nc32)CC1 [Example 171, methyl 4-{6-[4-({[3-(hydroxymethyl)phenyl]carbamoyl}amino)phenyl]-4-(8-oxa-3-azabicyclo[3.2.1]oct-3-yl)-1H-pyrazolo[3,4-d]pyrimidin-1-yl}piperidine-1-carboxylate] | 8
1.1 | 27 | 1280 | > 10000 |  |  |  | CNC(=O)Nc1ccc(-c2nc(N3CC4CCC(C3)O4)c3cnn(C4CCN(CC(F)(F)F)CC4)c3n2)cc1 [Example 26, 1-methyl-3-(4-{4-(8-oxa-3-azabicyclo[3.2.1]oct-3-yl)-1-[1-(2,2,2-trifluoroethyl)piperidin-4-yl]-1H-pyrazolo[3,4-d]pyrimidin-6-yl}phenyl)urea] | 190
 | < 1 |  |  | 0.385 | 336 | 2670 | COC1CCC(n2ncc3c(N4CC5CCC(C4)O5)nc(-c4ccc(NC(=O)Nc5ccc(N6CCN(C)CC6)nc5)cc4)nc32)CC1 (stereo not shown) [Example 309, 1-{4-[1-(4-methoxycyclohexyl)-4-(8-oxa-3-azabicyclo[3.2.1]oct-3-yl)-1H-pyrazolo[3,4-d]pyrimidin-6-yl]phenyl}-3-[6-(4-methylpiperazin-1-yl)pyridin-3-yl]urea] | 2
 | 7 |  |  | 0.53 | 793 | > 10000 | CNC(=O)Nc1ccc(-c2nc(N3CC4CCC(C3)O4)c3cnn(C4CCC(OC)CC4)c3n2)cc1 (stereo not shown) [Example 383, 1-{4-[1-(4-methoxycyclohexyl)-4-(8-oxa-3-azabicyclo[3.2.1]oct-3-yl)-1H-pyrazolo[3,4-d]pyrimidin-6-yl]phenyl}-3-methylurea] | 30
0.2 | 1 | 953 | 5380 |  |  |  | CC(C)n1ncc2c(N3CC4CCC(C3)O4)nc(-c3ccc(NC(=O)NC4CC4)cc3)nc21 [Example 142, 1-cyclopropyl-3-{4-[1-isopropyl-4-(8-oxa-3-azabicyclo[3.2.1]oct-3-yl)-1H-pyrazolo[3,4-d]pyrimidin-6-yl]phenyl}urea] | 48
0.36 | 0.8 | 1890 | 11000 |  |  |  | CCNC(=O)Nc1ccc(-c2nc(N3CC4CCC(C3)O4)c3cnn(C4CCN(C(=O)OCC)CC4)c3n2)cc1 [Example 31, ethyl 4-[6-{4-[(ethylcarbamoyl)amino]phenyl}-4-(8-oxa-3-azabicyclo[3.2.1]oct-3-yl)-1H-pyrazolo[3,4-d]pyrimidin-1-yl]piperidine-1-carboxylate] | 70
0.11 | < 0.8 | 160 | 2720 |  |  |  | CCn1ncc2c(N3CC4CCC(C3)O4)nc(-c3ccc(NC(=O)Nc4cccnc4)cc3)nc21 [Example 47, 1-{4-[1-ethyl-4-(8-oxa-3-azabicyclo[3.2.1]oct-3-yl)-1H-pyrazolo[3,4-d]pyrimidin-6-yl]phenyl}-3-pyridin-3-ylurea] | 1.2
0.076 | 10 | 246 | 4580 |  |  |  | CC(C)n1ncc2c(N3CC4CCC(C3)O4)nc(-c3ccc(NC(=O)NCCO)cc3)nc21 [Example 143, 1-(2-hydroxyethyl)-3-{4-[1-isopropyl-4-(8-oxa-3-azabicyclo[3.2.1]oct-3-yl)-1H-pyrazolo[3,4-d]pyrimidin-6-yl]phenyl}urea] | 70
